Laboratory results reported in patent US9115101B2 (Genentech, Inc., priority 2012, dated 2015).

biological target: T1, RORc ligand binding domain (Homo sapiens, UniProt P51449); experiment: In Vitro RORc Ligand Binding Assay (25-[3H]hydroxycholesterol radioligand filtration); conditions: In Vitro RORc Ligand Binding Assay; Table 4; read-out: RORc IC50
T1 construct: host or cells: E. coli
T1 sequence (P51449 269-508 limits assumed): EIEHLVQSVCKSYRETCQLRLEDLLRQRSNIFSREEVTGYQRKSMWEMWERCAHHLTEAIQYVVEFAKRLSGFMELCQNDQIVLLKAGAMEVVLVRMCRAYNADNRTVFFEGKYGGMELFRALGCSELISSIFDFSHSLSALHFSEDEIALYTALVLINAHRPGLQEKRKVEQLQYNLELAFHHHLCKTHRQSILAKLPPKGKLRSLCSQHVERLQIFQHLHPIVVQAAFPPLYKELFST

Compared with `CC(=O)N1CCN(c2ccc(CN3[C@@H](C)CCC(c4ccccc4)S3(=O)=O)c(F)c2)C[C@H]1C(=O)NC(C)C` (stereo partly drawn) [Example 394, (S)-1-Acetyl-4-[3-fluoro-4-((3S)-methyl-1,1-dioxo-6-phenyl-[1,2]thiazinan-2-ylmethyl)-phenyl]-piperazine-2-carboxylic acid isopropylamide], `CCCNC(=O)[C@@H]1CN(c2ccc(CN3[C@@H](C)CCC(c4ccccc4)S3(=O)=O)c(F)c2)CCN1C(C)=O` (stereo partly drawn) [Example 395, (S)-1-Acetyl-4-[3-fluoro-4-((3S)-methyl-1,1-dioxo-6-phenyl-[1,2]thiazinan-2-ylmethyl)-phenyl]-piperazine-2-carboxylic acid propylamide] is 11-fold lower in IC50: 3180 nM for the first, 287 nM for the second.

First: C[C@H]1CCC(c2ccccc2)S(=O)(=O)N1Cc1ccc(N2CCN3C(=O)CNC(=O)[C@H]3C2)cc1F (stereo partly drawn) [Example 396, (R)-8-[3-Fluoro-4-((3S)-methyl-1,1-dioxo-6-phenyl-[1,2]thiazinan-2-ylmethyl)-phenyl]-hexahydro-pyrazino[1,2-a]pyrazine-1,4-dione]
Second: CCOC(=O)c1ncc2n1CCN(c1ccc(CN3[C@@H](C)CCC(c4ccccc4)S3(=O)=O)c(F)c1)C2 (stereo partly drawn) [Example 397, 7-[3-Fluoro-4-((3S)-methyl-1,1-dioxo-6-phenyl-[1,2]thiazinan-2-ylmethyl)-phenyl]-5,6,7,8-tetrahydro-imidazo[1,5-a]pyrazine-3-carboxylic acid ethyl ester]
The IC50 of the first is 3.7-fold higher: 3250 nM for the first, 872 nM for the second. The second is the more potent here.

Molecule `C[C@H]1CCC(c2ccccc2)S(=O)(=O)N1Cc1ccc(C(=O)N2CCS(=O)(=O)CC2)cc1` (stereo partly drawn) [Example 398, (1,1-Dioxo-1-thiomorpholin-4-yl)-[4-((3S)-methyl-1,1-dioxo-6-phenyl-[1,2]thiazinan-2-ylmethyl)-phenyl]-methanone] has an IC50 of 5710 nM.

same assay, conditions: RORc IC50

Going from `O=S1(=O)[C@@H](c2ccccc2)CCC2(CC2)N1Cc1ccc(N2CCC(n3cnnc3)CC2)cc1F` [Example 415, (R)-4-[2-Fluoro-4-(4-[1,2,4]triazol-4-yl-piperidin-1-yl)-benzyl]-6-phenyl-5-thia-4-aza-spiro[2.5]octane 5,5-dioxide] to `O=S1(=O)[C@H](c2ccccc2)CCC2(CC2)N1Cc1ccc(N2CCC(n3cnnc3)CC2)cc1F` [Example 421, (S)-4-[2-Fluoro-4-(4-[1,2,4]triazol-4-yl-piperidin-1-yl)-benzyl]-6-phenyl-5-thia-4-aza-spiro[2.5]octane 5,5-dioxide], the IC50 rises from 37 nM to 289 nM (7.8-fold). The first is the more potent here.

same assay, conditions: read-out: RORc IC50

Going from `CC(=O)N1CCN(c2ccc(CN3[C@@H](C)CCC(c4ccccc4)S3(=O)=O)c(F)c2)C[C@H]1C(=O)NCCO` (stereo partly drawn) [Example 399, (S)-1-Acetyl-4-[3-fluoro-4-((3S)-methyl-1,1-dioxo-6-phenyl-[1,2]thiazinan-2-ylmethyl)-phenyl]-piperazine-2-carboxylic acid (2-hydroxy-ethyl)-amide] to `CONC(=O)[C@@H]1CN(c2ccc(CN3[C@@H](C)CCC(c4ccccc4)S3(=O)=O)c(F)c2)CCN1C(C)=O` (stereo partly drawn) [Example 407, (S)-1-Acetyl-4-[3-fluoro-4-((3S)-methyl-1,1-dioxo-6-phenyl-[1,2]thiazinan-2-ylmethyl)-phenyl]-piperazine-2-carboxylic acid methoxy-amide], the IC50 falls from 1590 nM to 148 nM (11-fold). The second is the more potent here.

Compared with `C[C@H]1CCC(c2ccccc2)S(=O)(=O)N1Cc1ccc(N2CCN3C(=O)OCC3C2)cc1F` (stereo partly drawn) [Example 400, 7-[3-Fluoro-4-((3S)-methyl-1,1-dioxo-6-phenyl-[1,2]thiazinan-2-ylmethyl)-phenyl]-hexahydro-oxazolo[3,4-a]pyrazin-3-one], `C[C@H]1CCC(c2ccccc2)S(=O)(=O)N1Cc1ccc(N2CCN3C(=O)COCC3C2)cc1F` (stereo partly drawn) [Example 417, 8-[3-Fluoro-4-((3S)-methyl-1,1-dioxo-6-phenyl-[1,2]thiazinan-2-ylmethyl)-phenyl]-hexahydro-pyrazino[2,1-c][1,4]oxazin-4-one] is 2.4-fold higher in IC50: 95 nM for the first, 231 nM for the second. The first is the more potent here.

`C[C@H]1CCC(c2ccccc2)S(=O)(=O)N1Cc1ccc(N2CCN3C(=O)CNC(=O)[C@@H]3C2)cc1F` (stereo partly drawn) [Example 401, (S)-8-[3-Fluoro-4-((3S)-methyl-1,1-dioxo-6-phenyl-[1,2]thiazinan-2-ylmethyl)-phenyl]-hexahydro-pyrazino[1,2-a]pyrazine-1,4-dione] and `C[C@H]1CCC(c2ccccc2)S(=O)(=O)N1Cc1ccc(N2CCN3C(=O)CN(C)C(=O)[C@@H]3C2)cc1F` (stereo partly drawn) [Example 402, (S)-8-[3-Fluoro-4-((3S)-methyl-1,1-dioxo-6-phenyl-[1,2]thiazinan-2-ylmethyl)-phenyl]-2-methyl-hexahydro-pyrazino[1,2-a]pyrazine-1,4-dione] are within 1.5-fold of each other in IC50: 2790 nM for the first, 3540 nM for the second.

`C[C@H]1CCC(c2ccccc2)S(=O)(=O)N1Cc1ccc(N2CCn3c(cnc3C(N)=O)C2)cc1F` (stereo partly drawn) [Example 403, 7-[3-Fluoro-4-((3S)-methyl-1,1-dioxo-6-phenyl-[1,2]thiazinan-2-ylmethyl)-phenyl]-5,6,7,8-tetrahydro-imidazo[1,5-a]pyrazine-3-carboxylic acid amide] and `C[C@H]1CCC(c2ccccc2)S(=O)(=O)N1Cc1ccc(N2CCn3c(cnc3CO)C2)cc1F` (stereo partly drawn) [Example 404, {7-[3-Fluoro-4-((3S)-methyl-1,1-dioxo-6-phenyl-[1,2]thiazinan-2-ylmethyl)-phenyl]-5,6,7,8-tetrahydro-imidazo[1,5-a]pyrazin-3-yl}-methanol] are within 1.5-fold of each other in IC50: 346 nM for the first, 504 nM for the second.

First: C[C@H]1CCC(c2ccccc2)S(=O)(=O)N1Cc1ccc(N2CCC(c3cn[nH]c3)CC2)cc1 (stereo partly drawn) [Example 414, (3S)-Methyl-6-phenyl-2-{4-[4-(1H-pyrazol-4-yl)-piperidin-1-yl]-benzyl}-[1,2]thiazinane 1,1-dioxide]
Second: C[C@H]1CCC(c2ccccc2)S(=O)(=O)N1Cc1ccc(N2CCC(n3cnnn3)CC2)cc1 (stereo partly drawn) [Example 422, (3S)-Methyl-6-phenyl-2-[4-(4-tetrazol-1-yl-piperidin-1-yl)-benzyl]-[1,2]thiazinane 1,1-dioxide]
The IC50 of the first is 12-fold lower: 6 nM for the first, 70 nM for the second. The first is the more potent here.

Going from `COC(=O)[C@H]1CN(C(C)=O)CCN1c1ccc(CN2[C@@H](C)CCC(c3ccccc3)S2(=O)=O)c(F)c1` (stereo partly drawn) [Example 416, (R)-4-Acetyl-1-[3-fluoro-4-((3S)-methyl-1,1-dioxo-6-phenyl-[1,2]thiazinan-2-ylmethyl)-phenyl]-piperazine-2-carboxylic acid methyl ester] to `CC(=O)N1CCN(c2ccc(CN3[C@@H](C)CCC(c4ccccc4)S3(=O)=O)c(F)c2)[C@@H](C(N)=O)C1` (stereo partly drawn) [Example 433, (R)-4-Acetyl-1-[3-fluoro-4-((3S)-methyl-1,1-dioxo-6-phenyl-[1,2]thiazinan-2-ylmethyl)-phenyl]-piperazine-2-carboxylic acid amide], the IC50 falls from 368 nM to 228 nM (1.6-fold).

Going from `C[C@H]1CCC(c2ccccc2)S(=O)(=O)N1Cc1ccc(N2CCN3C(=O)CC[C@H]3C2)cc1F` (stereo partly drawn) [Example 419, (S)-2-[3-Fluoro-4-((3S)-methyl-1,1-dioxo-6-phenyl-[1,2]thiazinan-2-ylmethyl)-phenyl]-hexahydro-pyrrolo[1,2-a]pyrazin-6-one] to `C[C@H]1CCC(c2ccccc2)S(=O)(=O)N1Cc1ccc(N2CC(n3cnnc3)C2)cc1F` (stereo partly drawn) [Example 428, 2-[2-Fluoro-4-(3-[1,2,4]triazol-4-yl-azetidin-1-yl)-benzyl]-(3S)-methyl-6-phenyl-[1,2]thiazinane 1,1-dioxide], the IC50 rises from 32 nM to 88 nM (2.8-fold).

Going from `C[C@H]1CCC(c2ccccc2)S(=O)(=O)N1Cc1ccc(N2CCC(n3ncnn3)CC2)cc1` (stereo partly drawn) [Example 423, (3S)-Methyl-6-phenyl-2-[4-(4-tetrazol-2-yl-piperidin-1-yl)-benzyl]-[1,2]thiazinane 1,1-dioxide] to `C[C@H]1CCC(c2ccccc2)S(=O)(=O)N1Cc1ccc(OC2CCOCC2)cc1` (stereo partly drawn) [Example 432, (3S)-Methyl-6-phenyl-2-[4-(tetrahydro-pyran-4-yloxy)-benzyl]-[1,2]thiazinane 1,1-dioxide], the IC50 rises from 177 nM to 1110 nM (6.3-fold). The first is the more potent here.

`C[C@H]1CCC(c2ccccc2)S(=O)(=O)N1Cc1ccc(N2CC3(CC(n4cnnc4)C3)C2)cc1F` (stereo partly drawn) [Example 424, 2-[3-Fluoro-4-((3S)-methyl-1,1-dioxo-6-phenyl-[1,2]thiazinan-2-ylmethyl)-phenyl]-6-[1,2,4]triazol-4-yl-2-aza-spiro[3.3]heptane] and `COC(=O)C1(n2cnnc2)CCN(c2ccc(CN3[C@@H](C)CCC(c4ccccc4)S3(=O)=O)c(F)c2)CC1` (stereo partly drawn) [Example 426, 1-[3-Fluoro-4-((3S)-methyl-1,1-dioxo-6-phenyl-[1,2]thiazinan-2-ylmethyl)-phenyl]-4-[1,2,4]triazol-4-yl-piperidine-4-carboxylic acid methyl ester] are within 1.5-fold of each other in IC50: 427 nM for the first, 453 nM for the second.

Compared with `C[C@H]1CCC(c2ccccc2)S(=O)(=O)N1Cc1ccc(N2CC3(CC(n4cnnc4)C3)C2)cc1F` (stereo partly drawn) [Example 425, 2-[3-Fluoro-4-((3S)-methyl-1,1-dioxo-6-phenyl-[1,2]thiazinan-2-ylmethyl)-phenyl]-6-[1,2,4]triazol-4-yl-2-aza-spiro[3.3]heptane], `COC(=O)C1(n2cnnc2)CCN(c2ccc(CN3[C@@H](C)CCC(c4ccccc4)S3(=O)=O)c(F)c2)CC1` (stereo partly drawn) [Example 427, 1-[3-Fluoro-4-((3S)-methyl-1,1-dioxo-6-phenyl-[1,2]thiazinan-2-ylmethyl)-phenyl]-4-[1,2,4]triazol-4-yl-piperidine-4-carboxylic acid methyl ester] is 2.3-fold lower in IC50: 1010 nM for the first, 447 nM for the second.

`C[C@H]1CCC(c2ccccc2)S(=O)(=O)N1Cc1ccc(OCC2CCOC2)cc1` (stereo partly drawn) [Example 430, (3S)-Methyl-6-phenyl-2-[4-(tetrahydro-furan-3-ylmethoxy)-benzyl]-[1,2]thiazinane 1,1-dioxide] and `C[C@H]1CCC(c2ccccc2)S(=O)(=O)N1Cc1ccc(OCC2CC2)cc1` (stereo partly drawn) [Example 431, 2-(4-Cyclopropylmethoxy-benzyl)-(3S)-methyl-6-phenyl-[1,2]thiazinane 1,1-dioxide] are within 1.5-fold of each other in IC50: 559 nM for the first, 641 nM for the second.
